Key:
[1] = target: T1, mGluR5 (Homo sapiens, UniProt P41594); experiment: radioligand binding assay, recombinant CHO-K1 cells
T1 construct: host or cells: CHO-K1 cells
Description: (§1) Nonspecific AMPA, kainate and NMDA binding assays were performed by Eurofins Discovery (Cerep) using rat cerebral cortex membranes and radiolabeled [^3H]AMPA, [^3H]kainic acid and [^3H]CGP 39653, respectively. All compounds were tested at a single concentration of 100 uM in triplicate. mGluR1, mGluR2, mGluR5 and GABAB binding assays were performed by Eurofins Discovery. mGluR1 assay was performed using rat cerebellum membranes and radiolabeled [^3H]quisqalic acid. mGluR2 assay was performed using recombinant Chem-1 cells and [^3H]LY341495. mGluR5 and GABAB binding assays were performed using recombinant CHO-K1 cells and […], respectively. All compounds were tested at a single concentration of 100 uM in triplicate.
(§2) All receptor assays were performed exactly as described in Example 1. Functional assays of all GABAA, NMDA (GluN2A-GluN2D) and AMPA (GluA2) receptor subunits were performed by SB Drug Discovery as a part of their CNS discovery panel using FLIPR technology. All compounds were tested at 7 concentrations in triplicate and EC50/IC50 was determined where applicable. Functional GABAB assay was performed by Eurofins Discovery (Cerep) using Ca^2+-dependent fluorimetry in RBL cells expressing human GABAB (B1/B2) receptor. All compounds were tested at a single concentration of 100 uM in triplicate. Nonspecific AMPA, kainate and NMDA binding assays were performed by Eurofins Discovery (Cerep) using rat cerebral cortex membranes and radiolabeled [^3H]AMPA, [^3H]kainic acid and [^3H]CGP 39653, respectively. All compounds were tested at a single concentration of 100 uM in triplicate. mGluR1, mGluR2, mGluR5 and GABAB binding assays were performed by Eurofins Discovery. All compounds were tested at a single concentration of 100 uM in triplicate.

[2] = tested on: AMPA nonspecific; experiment: radioligand binding assay, cerebral cortex membranes, [3H]AMPA; conditions: AMPA nonspec, rat; 100 μM
Description: as §1
(§3) All receptor assays were performed exactly as described in Example 1. Functional assays of all GABAA, NMDA (GluN2A-GluN2D) and AMPA (GluA2) receptor subunits were performed by SB Drug Discovery as a part of their CNS discovery panel using FLIPR technology. All compounds were tested at 7 concentrations in triplicate and EC50/IC50 was determined where applicable. Functional GABAB assay was performed by Eurofins Discovery (Cerep) using Ca^2+-dependent fluorimetry in RBL cells expressing human GABAB (B1/B2) receptor. All compounds were tested at a single concentration of 100 uM in triplicate. […]

[3] = tested on: kainate nonspecific; experiment: radioligand binding assay, cerebral cortex membranes, [3H]kainic acid; conditions: kainate nonspec, rat; 100 μM
Description: as §1, §3

[4] = target: T2, GABAA α2β2γ2 (Homo sapiens, UniProt P18507+P47869+P47870); experiment: FLIPR functional assay, HEK 293 cells (agonist/PAM/antagonist); type: cell-based; conditions: top concentration 1 mM, read-out: EC50, functional agonist receptor assay
T2 construct: host or cells: HEK 293 (stably expressing)
Description: (§4) Functional assays of all GABAA, NMDA (GluN2A-GluN2D) and AMPA (GluA2) receptor subunits were performed by SB Drug Discovery as a part of their CNS discovery panel using FLIPR technology. Briefly, receptor-expressing HEK 293 cell lines were incubated in a red membrane potential dye in HEPES:HBSS pH 7.4 buffer and the fluorescence (λex: 488, λex: 510-570) was monitored over time as the test compounds and/or reference compounds were added to the solution. In agonist assay, only test compounds were added. In positive allosteric modulator assay, cells were preincubated with test compounds and then low concentration (approximately EC20) of an appropriate agonist was added. In antagonist assay, cells were preincubated with test compounds and then high concentration (approximately EC80) of an appropriate agonist was added. For GABAA assays, GABA was used as the agonist, picrotoxin was used as the reference antagonist and allopregnanolone was used as the reference positive allosteric modulator (PAM). For NMDA assays, a mixture of glutamate, glycine and CaCl2 was used as the agonist, MK801 was the reference antagonist and pregnenolone sulfate or GNE 9278 were used as reference PAMs. For AMPA assays, glutamate was used as the agonist, CNQX was the reference antagonist and cyclothiazide was used as the reference PAM. All compounds were tested at 7 concentration points in triplicate and EC50/IC50 was determined where applicable. Functional GABAB assay was performed by Eurofins Discovery (Cerep) using Ca^2+-dependent fluorimetry in RBL cells expressing human GABAB (B1/B2) receptor. All compounds were tested at a single concentration of 100 uM in triplicate.
as §2

[5] = target: T3, GABAA α2β3γ2 (Homo sapiens, UniProt P18507+P28472+P47869); experiment: as above; type: cell-based; conditions: top concentration 1 mM, read-out: EC50, functional agonist receptor assay
T3 construct: host or cells: HEK 293 (stably expressing)
Description: as §4, §2

[6] = target: T4, GABAA α3β1γ2 (Homo sapiens, UniProt P18505+P18507+P34903); experiment: as above; type: cell-based; conditions: top concentration 1 mM, read-out: EC50, functional agonist receptor assay
T4 construct: host or cells: HEK 293 (stably expressing)
T4 sequence (P34903 29-492): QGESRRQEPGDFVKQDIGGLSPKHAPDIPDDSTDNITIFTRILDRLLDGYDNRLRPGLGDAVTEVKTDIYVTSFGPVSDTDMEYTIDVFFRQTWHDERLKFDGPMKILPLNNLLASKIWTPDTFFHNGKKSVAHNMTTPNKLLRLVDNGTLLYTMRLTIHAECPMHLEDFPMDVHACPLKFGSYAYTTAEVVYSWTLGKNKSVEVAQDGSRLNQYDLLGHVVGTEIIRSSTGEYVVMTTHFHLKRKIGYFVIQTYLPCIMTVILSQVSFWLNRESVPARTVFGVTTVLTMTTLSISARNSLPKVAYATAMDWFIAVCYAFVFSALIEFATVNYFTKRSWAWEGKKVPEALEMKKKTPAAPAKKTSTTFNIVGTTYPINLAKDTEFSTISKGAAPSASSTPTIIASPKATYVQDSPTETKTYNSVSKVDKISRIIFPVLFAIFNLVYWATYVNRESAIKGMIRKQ
T4 sequence (P18505 26-474): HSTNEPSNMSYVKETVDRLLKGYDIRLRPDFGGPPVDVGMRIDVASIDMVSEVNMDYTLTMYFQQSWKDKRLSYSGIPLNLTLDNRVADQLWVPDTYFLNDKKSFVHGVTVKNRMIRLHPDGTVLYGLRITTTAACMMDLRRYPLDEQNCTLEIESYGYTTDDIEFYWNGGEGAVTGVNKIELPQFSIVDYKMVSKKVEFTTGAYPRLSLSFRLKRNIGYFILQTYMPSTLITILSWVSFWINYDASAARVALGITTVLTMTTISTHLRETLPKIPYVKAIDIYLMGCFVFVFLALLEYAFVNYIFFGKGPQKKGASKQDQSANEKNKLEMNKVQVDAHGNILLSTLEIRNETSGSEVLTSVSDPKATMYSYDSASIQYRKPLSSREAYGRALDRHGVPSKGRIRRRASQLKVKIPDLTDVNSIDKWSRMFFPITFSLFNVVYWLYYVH
T4 sequence (P18507 40-475): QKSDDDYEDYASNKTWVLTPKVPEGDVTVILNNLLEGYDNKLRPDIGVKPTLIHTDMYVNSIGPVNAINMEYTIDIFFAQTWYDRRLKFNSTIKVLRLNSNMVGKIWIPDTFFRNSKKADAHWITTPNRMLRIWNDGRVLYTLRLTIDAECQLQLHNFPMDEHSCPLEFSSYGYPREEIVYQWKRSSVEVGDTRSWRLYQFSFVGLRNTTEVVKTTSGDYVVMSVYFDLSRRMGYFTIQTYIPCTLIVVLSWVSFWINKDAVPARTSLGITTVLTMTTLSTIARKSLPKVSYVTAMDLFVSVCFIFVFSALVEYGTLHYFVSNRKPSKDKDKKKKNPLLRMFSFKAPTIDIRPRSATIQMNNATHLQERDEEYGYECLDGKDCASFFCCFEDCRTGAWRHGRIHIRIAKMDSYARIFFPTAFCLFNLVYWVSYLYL
Description: as §4, §2

[7] = target: T5, GABAA α3β2γ2 (Homo sapiens, UniProt P18507+P34903+P47870); experiment: as above; type: cell-based; conditions: top concentration 1 mM, read-out: EC50, functional agonist receptor assay
T5 construct: host or cells: HEK 293 (stably expressing)
T5 sequence (P34903 29-492): as the sequence (P34903 29-492) above
T5 sequence (P47870 25-512 limits assumed): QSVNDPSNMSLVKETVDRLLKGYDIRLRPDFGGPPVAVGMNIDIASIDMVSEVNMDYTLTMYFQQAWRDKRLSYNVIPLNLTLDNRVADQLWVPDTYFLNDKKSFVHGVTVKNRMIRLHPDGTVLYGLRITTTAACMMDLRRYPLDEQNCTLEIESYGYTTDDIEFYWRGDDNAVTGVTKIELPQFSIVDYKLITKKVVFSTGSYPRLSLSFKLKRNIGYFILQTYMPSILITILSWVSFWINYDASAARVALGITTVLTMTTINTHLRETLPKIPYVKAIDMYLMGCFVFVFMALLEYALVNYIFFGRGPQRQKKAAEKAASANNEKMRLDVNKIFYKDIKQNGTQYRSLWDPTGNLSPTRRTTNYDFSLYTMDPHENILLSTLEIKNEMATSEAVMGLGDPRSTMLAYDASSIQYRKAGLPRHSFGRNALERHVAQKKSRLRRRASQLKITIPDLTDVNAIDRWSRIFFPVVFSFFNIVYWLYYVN
T5 sequence (P18507 40-475): as the sequence (P18507 40-475) above
Description: as §4, §2

[8] = target: T6, GABAA α3β3γ2 (Homo sapiens, UniProt P18507+P28472+P34903); experiment: as above; type: cell-based; conditions: top concentration 1 mM; for EC50: read-out: EC50, functional agonist receptor assay
T6 construct: host or cells: HEK 293 (stably expressing)
T6 sequence (P34903 29-492): as the sequence (P34903 29-492) above
T6 sequence (P28472 26-473): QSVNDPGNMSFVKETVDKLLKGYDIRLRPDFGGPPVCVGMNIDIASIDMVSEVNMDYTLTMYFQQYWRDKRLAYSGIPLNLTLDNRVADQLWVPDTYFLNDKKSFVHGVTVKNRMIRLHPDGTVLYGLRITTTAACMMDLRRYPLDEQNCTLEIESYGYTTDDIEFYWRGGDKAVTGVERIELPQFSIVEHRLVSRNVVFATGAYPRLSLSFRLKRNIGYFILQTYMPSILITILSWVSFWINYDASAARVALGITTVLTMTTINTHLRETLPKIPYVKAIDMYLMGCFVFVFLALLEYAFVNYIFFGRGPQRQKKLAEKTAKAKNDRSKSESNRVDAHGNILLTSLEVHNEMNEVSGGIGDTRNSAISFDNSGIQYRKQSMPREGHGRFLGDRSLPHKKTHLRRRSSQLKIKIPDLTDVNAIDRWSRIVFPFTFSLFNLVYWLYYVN
T6 sequence (P18507 40-475): as the sequence (P18507 40-475) above
Description: as §4, §2

[9] = target: T7, GABAA α4β1γ2 (Homo sapiens, UniProt P18505+P18507+P48169); experiment: as above; type: cell-based; conditions: top concentration 1 mM, read-out: EC50, functional agonist receptor assay
T7 construct: host or cells: HEK 293 (stably expressing)
T7 sequence (P48169 36-554): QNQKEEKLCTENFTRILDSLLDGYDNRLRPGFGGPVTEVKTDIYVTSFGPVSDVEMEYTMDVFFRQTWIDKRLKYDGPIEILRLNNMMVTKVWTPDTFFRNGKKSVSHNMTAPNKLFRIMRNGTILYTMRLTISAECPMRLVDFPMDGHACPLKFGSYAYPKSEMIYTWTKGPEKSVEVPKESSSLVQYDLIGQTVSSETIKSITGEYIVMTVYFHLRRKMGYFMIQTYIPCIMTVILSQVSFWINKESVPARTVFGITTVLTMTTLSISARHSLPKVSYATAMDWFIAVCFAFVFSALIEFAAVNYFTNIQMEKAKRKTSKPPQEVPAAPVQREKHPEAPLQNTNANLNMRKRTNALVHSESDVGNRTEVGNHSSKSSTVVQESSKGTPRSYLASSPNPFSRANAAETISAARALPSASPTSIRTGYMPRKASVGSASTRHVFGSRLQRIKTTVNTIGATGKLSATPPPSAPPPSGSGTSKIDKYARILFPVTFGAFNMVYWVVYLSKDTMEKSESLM
T7 sequence (P18505 26-474): as the sequence (P18505 26-474) above
T7 sequence (P18507 40-475): as the sequence (P18507 40-475) above
Description: as §4, §2

[10] = target: T8, GABAA α4β2γ2 (Homo sapiens, UniProt P18507+P47870+P48169); experiment: as above; type: cell-based; conditions: top concentration 1 mM, read-out: EC50, functional agonist receptor assay
T8 construct: host or cells: HEK 293 (stably expressing)
T8 sequence (P48169 36-554): as the sequence (P48169 36-554) above
T8 sequence (P47870 25-512 limits assumed): as the sequence (P47870 25-512 limits assumed) above
T8 sequence (P18507 40-475): as the sequence (P18507 40-475) above
Description: as §4, §2

[11] = target: T9, GABAA α4β3γ2 (Homo sapiens, UniProt P18507+P28472+P48169); experiment: as above; type: cell-based; conditions: top concentration 1 mM, read-out: EC50, functional agonist receptor assay
T9 construct: host or cells: HEK 293 (stably expressing)
T9 sequence (P48169 36-554): as the sequence (P48169 36-554) above
T9 sequence (P28472 26-473): as the sequence (P28472 26-473) above
T9 sequence (P18507 40-475): as the sequence (P18507 40-475) above
Description: as §4, §2

[12] = target: GABAA α6β1γ2 (Homo sapiens, UniProt P18505+Q16445); experiment: as above; type: cell-based; conditions: top concentration 1 mM, read-out: EC50, functional agonist receptor assay
Description: as §4, §2

[13] = target: GABAA α6β3γ2 (Homo sapiens, UniProt P28472+Q16445); experiment: as above; type: cell-based; conditions: top concentration 1 mM, read-out: EC50, functional agonist receptor assay
Description: as §4, §2

[14] = target: T10, GABAB (B1/B2) (Homo sapiens, UniProt Q9UBS5); experiment: functional assay, Ca2+-dependent fluorimetry in RBL cells; type: cell-based; conditions: 100 μM
T10 construct: host or cells: RBL cells
Description: as §4, with “For NMDA assays, a mixture of glutamate, glycine and CaCl2 was used as the agonist, MK801 was the reference antagonist and pregnenolone sulfate or GNE 9278 were used as reference PAMs. For AMPA assays, glutamate was used as the agonist, CNQX was the reference antagonist and cyclothiazide was used as the reference PAM.” left out, “Functional GABAB assay was performed by Eurofins Discovery (Cerep) using Ca^2+-dependent fluorimetry in RBL cells expressing human GABAB (B1/B2) receptor. All compounds were tested at a single concentration of 100 uM in triplicate.” left out
All receptor assays were performed exactly as described in Example 1. […] All compounds were tested at 7 concentrations in triplicate and EC50/IC50 was determined where applicable. […]

[15] = tested on: GABAB nonsel; experiment: radioligand binding inhibition assay; conditions: rat, 100 μM
Description: as §1

T1 sequence (P41594 21-1212): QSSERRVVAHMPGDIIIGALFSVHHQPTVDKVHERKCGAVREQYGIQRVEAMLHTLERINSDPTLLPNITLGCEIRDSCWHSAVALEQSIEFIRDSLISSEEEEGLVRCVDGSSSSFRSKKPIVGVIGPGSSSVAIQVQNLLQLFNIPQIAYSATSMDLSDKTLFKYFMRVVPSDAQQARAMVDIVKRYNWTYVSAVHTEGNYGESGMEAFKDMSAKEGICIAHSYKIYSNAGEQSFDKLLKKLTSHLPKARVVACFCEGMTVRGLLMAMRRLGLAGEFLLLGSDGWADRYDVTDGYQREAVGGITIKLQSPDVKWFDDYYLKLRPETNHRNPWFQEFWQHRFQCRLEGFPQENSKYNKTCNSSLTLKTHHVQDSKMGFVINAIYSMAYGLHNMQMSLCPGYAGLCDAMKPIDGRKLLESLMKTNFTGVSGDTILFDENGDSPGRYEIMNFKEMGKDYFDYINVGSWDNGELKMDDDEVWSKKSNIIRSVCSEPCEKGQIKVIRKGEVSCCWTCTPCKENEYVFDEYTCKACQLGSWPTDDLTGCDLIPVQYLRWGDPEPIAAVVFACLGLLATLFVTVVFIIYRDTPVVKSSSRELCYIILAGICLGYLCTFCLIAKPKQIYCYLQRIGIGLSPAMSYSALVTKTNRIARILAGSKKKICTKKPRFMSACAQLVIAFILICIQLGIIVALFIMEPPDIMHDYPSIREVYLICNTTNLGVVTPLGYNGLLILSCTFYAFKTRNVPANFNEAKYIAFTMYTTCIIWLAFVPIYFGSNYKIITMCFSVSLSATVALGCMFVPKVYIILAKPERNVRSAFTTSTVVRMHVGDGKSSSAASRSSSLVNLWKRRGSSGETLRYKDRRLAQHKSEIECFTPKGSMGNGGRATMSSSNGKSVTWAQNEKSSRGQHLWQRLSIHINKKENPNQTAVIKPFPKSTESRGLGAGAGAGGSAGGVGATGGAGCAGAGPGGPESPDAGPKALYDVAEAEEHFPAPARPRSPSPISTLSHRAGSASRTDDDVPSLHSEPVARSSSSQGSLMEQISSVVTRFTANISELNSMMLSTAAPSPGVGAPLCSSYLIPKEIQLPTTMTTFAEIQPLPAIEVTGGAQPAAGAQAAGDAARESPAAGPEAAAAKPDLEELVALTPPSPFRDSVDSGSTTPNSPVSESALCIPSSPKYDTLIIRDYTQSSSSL

## C[C@@](N)(CCC(=O)O)C(=O)O [(R)-2MeGlu, (R)-2-methylglutamic acid]
[1]; first mGluR5 row of Table 5
  inhibition at 100 µM: -20%
[1]; second mGluR5 row of Table 5
  inhibition at 100 µM: -2%
[2]
  % of radioligand binding inhibition: 15%
[3]
  % of radioligand binding inhibition: 18%
[4]
  EC50: 660 µM
[5]
  EC50: 622 µM
[6]
  EC50: 742 µM
[7]
  EC50: 1040 µM
[8]
  EC50: 959 µM
[9]
  EC50: 870 µM
[10]
  EC50: 1250 µM
[11]
  EC50: > 1000 µM
[12]
  EC50: 772 µM
[13]
  EC50: > 1000 µM
[14]
  % of agonist response: 0%
[15]
  % of radioligand binding inhibition: 5%

## C[C@](N)(CCC(=O)O)C(=O)O [(S)-2MeGlu, (S)-2-methylglutamic acid]
[1]; first mGluR5 row of Table 5
  inhibition at 100 µM: 11%
[1]; second mGluR5 row of Table 5
  inhibition at 100 µM: -4%
[2]
  % of radioligand binding inhibition: 12%
[3]
  % of radioligand binding inhibition: 20%
[4]
  EC50: 530 µM
[5]
  EC50: 342 µM
[6]
  EC50: 782 µM
[7]
  EC50: 961 µM
[8]
  EC50: 725 µM
[8]; read-out: IC50, functional antagonist receptor assay
  IC50: 978 µM
[9]
  EC50: 704 µM
[10]
  EC50: 1020 µM
[11]
  EC50: > 1000 µM
[12]
  EC50: 280 µM
[13]
  EC50: 998 µM
[14]
  % of agonist response: 0%
[15]
  % of radioligand binding inhibition: 5%

Reference: patent US12589087B2, “Enantiomer selective action on neurotransmission” (The Board of Trustees of the Leland Stanford Junior …, priority 2021, dated 2026)
